Laboratory results published in article PMC10521662 (Biodesign Research, 2022).

Target: T1, β-PGM (β-phosphoglucomutase) (Pyrococcus horikoshii, UniProt O58510)
T1 construct: gene PH0749; recombinant, plasmid pET20b-βpgm, E. coli BL21(DE3), purified
T1 sequence (O58510 1-230): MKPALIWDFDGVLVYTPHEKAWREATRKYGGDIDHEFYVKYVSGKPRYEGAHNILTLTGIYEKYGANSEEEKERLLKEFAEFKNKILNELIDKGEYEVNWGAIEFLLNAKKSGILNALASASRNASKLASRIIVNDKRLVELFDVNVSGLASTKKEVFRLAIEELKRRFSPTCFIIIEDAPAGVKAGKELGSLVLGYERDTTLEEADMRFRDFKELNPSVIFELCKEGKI
Experiment: G6P formation, G6PDH NADH assay at […] nm
Assay type: biochemical
Conditions: 10 mM β-G1P; 10 mM MgCl2; pH 7.0; 37 °C

O=P(O)(O)O[C@@H]1O[C@H](CO)[C@@H](O)[C@H](O)[C@H]1O [β-G1P]
G6P formation, G6PDH NADH assay at 340 nm: β-PGM was able to utilize β-G1P but showed no activity for α-G1P
